These results are taken from patent US8206704B2, “Use of GCC ligands” (priority 2003, dated 2012).

As a reminder, the pKi is the negative decadic logarithm of the Ki, by convention in mol/L.

pKi: −log10 of the molar value. Entries after “also recorded” stand apart in the source; their conditions may differ. No end group written: not given here.

Test [1] deals with T84 cells. Description: DNA synthesis ([methyl-3H]thymidine incorporation), tumor cell proliferation. It is filed as cell-based, human. Particulars: for Effect of agent on inhibition of proliferation induced by ST: with ST, 1 μM KT5823, 50 μM RP8pCPT-cGMP, 0.5 μM KT5720, 50 μM RP-cAMPs, 10 μM milrinone, 200 μM L-DLT, 20 μM BAPTA, 50 μM DTR, 1 μM PHE, 100 nM CTX. The method, then:
T84 (passages 50-70) and SW480 (passage 100-120) human colon carcinoma cells, obtained from the American Type Culture Collection, were maintained at 37° C. (5% CO2) in DMEM/F12 containing 2.5 mM L-glutamine, 100 units/ml penicillin, 100 μg/ml streptomycin, and 10% (vol/vol) FBS.
Exponentially growing cancer cells (˜60% confluent in 96-well plates) were synchronized by serum starvation in Eagle's minimal essential medium (EMEM) for 48 h, followed by proliferative induction with 10 mM L-glutamine (in EMEM) for 24 h. ST and other agents were added to cells 15 min before 0.2 μCi per well (1 Ci=37 GBq) of [methyl-3H]thymidine, which was added for 3 h, followed by quantification of [3H]thymidine incorporation into DNA (15).

Test [2] deals with human T84 colon cancer cells. Description: Perforated whole-cell patch-clamp current measurements. It is filed as cell-based. Particulars: for Induction of L-DLT-sensitive membrane current: 500 nM ST, 2.5 mM 8-br-cGMP. The method, then: The perforated mode of the whole-cell patch-clamp recording was applied to human T84 colon cancer cells. Membrane potential was controlled through the electrical access obtained by membrane perforation induced by amphotericin B (9, 10). The pipette solution supplemented by amphotericin B ([…]) contained: 140 mM KCl, 1 mM MgCl2, 5 mM EGTA, and 20 mM Hepes-KOH (pH 7.3). The bath solution contained (in mM): 136.5 mM NaCl, 5.4 mM KCl, 1.8 mM CaCl2, 0.5 mM MgCl2, 5.5 mM glucose, and 5 mM Hepes-NaOH (pH 7.4). Voltage-clamp recordings were performed with an Axopatch 1-C patch-clamp amplifier (Axon Instruments, Foster City, Calif.) at 31±1° C. using an HCC-100 temperature controller (Dagan Instruments, Minneapolis; ref. 19).

In test [3] the test system is T84 cells. Description: 45Ca2+ transport (calcium influx). In kind it is cell-based, human. Particulars: ST 1 μM, 20 min; 8-br-cGMP 5 mM, 40 min. The method, then: Exponentially growing T84 cells (40-80% confluent in 24-well plates) were incubated in media (S-MEM, Life Technologies, Rockville, Md.) containing low (300 μM) CaCl2 to maximize the signal-to-noise ratio for L-cis-diltiazem (L-DLT)-sensitive 45Ca2+ transport determinations. Cells were treated with ST, 8-br-cGMP, and/or L-DLT for the indicated times, followed by the addition of 1 μCi per well 45Ca2+ for the last 15 min. Incubations were terminated by washing four times in cold PBS buffer (145 mM NaCl/5 mM KCl/1 mM MgCl2/10 mM glucose/5 mM Hepes, pH 7.4) containing 0.1 mM EGTA, cells were solubilized with cold NaOH (0.1 M), and radioactivity was quantified in 100-μl aliquots.

Test [4] deals with human T84 colon cancer cells. Description: Perforated whole-cell patch-clamp current measurements. It is filed as cell-based. The settings on record: Ca-free solution, n=5. In general terms: In patch-clamp work, channel activity is measured electrically.
The target in test [5] is cAMP-dependent protein kinase I and II. The settings on record: refs. 50 and 51; cited from earlier work.
The target in the next test is PKG-I and -II. The settings on record: cited from earlier work.
Test [6] relates to matrix metalloproteinase 9 release from human colorectal cancer cells. Description: Release of matrix metalloproteinase 9 (MMP 9 activity, western blot). It is filed as cell-based. The settings on record: ST 1 micromolar. The source says: Preventing the secretion of this digestive enzyme will inhibit the ability of these tumor cells to invade the wall of the intestine. […] ST did this at a concentration of 1 micromolar.
A general note: Immunoblotting shows a protein as a band on a membrane.

In test [7] the test system is human colorectal cancer cells. Description: Actin cytoskeleton organization (confocal microscopy, cell spreading). It is filed as cell-based. The settings on record: ST 1 micromolar, confocal microscopy. The source says: ST prevented human colorectal cancer cells from organizing their actin cytoskeleton. […] The latter is a functional readout of the ability of cells to organize actin. Human colorectal cancer cells treated with ST cannot spread their bodies out in vitro. An inability to organize their actin cytoskeletons will prevent these cells from being able to migrate through tissues to metastasize.

The subject of test [8] is T84 human colon carcinoma cells. Description: Inhibition of proliferation of cancer cells. In kind it is cell-based. Particulars: after exposure.
Test [9] deals with Caco 2 human colon carcinoma cells. Description: Inhibition of proliferation of cancer cells. It is filed as cell-based. The settings on record: after exposure.

Take `Nc1nc2c(nc(Br)n2[C@@H]2O[C@@H]3COP(=O)(O)O[C@H]3[C@H]2O)c(=O)[nH]1` [8-br-cGMP]: in the test with T84 cells [1] (8-br-cGMP 5 mM), the “Inhibition of cell proliferation / DNA synthesis by 8-br-cGMP” value is recorded as “inhibited tumor cell DNA synthesis; also recorded: inhibition of cell proliferation”. Moreover, in [2], the “Induction of Ca2+-dependent K+ current (KCa), charybdotoxin-sensitive” value is recorded as “induced”; the “Reversal potential derived from the induced current-voltage relationship” value was approximately −70 mV; the “Induction of L-DLT-sensitive membrane current” value is listed as “induced an L-DLT-sensitive current”. Besides, in [2] (listed as 8-Br-cGMP), the “Induction of L-DLT-sensitive membrane current” value is on record as “induces an L-DLT-sensitive current”. The “Induced current in the presence of [Ca2+]ext” value in [2] (control, 1.8 mM CaCl2, n=5) is recorded as 0.21±0.04 nA. Also, the “Shift of the reversal potential ΔEm” value in test [2] (ramp pulses, holding potential −40 mV, mean±SEM) is −25.8±4.6 mV. Besides, the “Influx of 45Ca2+ into colon cancer cells” value in the test on T84 cells [3] is given as “induced influx”. Also, the “Induced current after removal of [Ca2+]ext” value in [4] worked out at 0.07±0.04 nA.

Consider `CC(=O)OCOC(=O)CN(CC(=O)OCOC(C)=O)c1ccccc1OCCOc1ccccc1N(CC(=O)OCOC(C)=O)CC(=O)OCOC(C)=O` [BAPTA-AM], for which, in the test with T84 cells [1], the “Effect of agent on inhibition of proliferation induced by ST” value (“Effect of agent on inhibition … by ST” for short) is recorded as “reversal; also recorded: abolished”.

Take `O=C1CN(/N=C/c2ccc(-c3ccc([N+](=O)[O-])cc3)o2)C(O)=N1` [Dantrolene]: the “Effect of agent on inhibition … by ST” value in the test with T84 cells [1] was “did not reverse”; with T84 cells [1] (listed as dantrolene), “did not affect”.

As to `C[C@H](CCC(=O)O)C[C@H](C)C[C@H](C)C(=O)/C=C(\O)[C@H](C)C[C@H](C)C/C=C/[C@@H](C)[C@@H](O)[C@@H](C)[C@@H](O)C[C@@H]1CC[C@@](C)([C@H]2CC[C@@](C)([C@@H](C)O)O2)O1` [Ionomycin], the “Effect on cell proliferation of agent on its own compared with ST” value in the test on T84 cells [1] (ionomycin 1 μM, ST 1 μM) was “mimicked”.

On to `CCCCCCOC(=O)[C@]1(O)C[C@@H]2O[C@@]1(C)n1c3ccccc3c3c4c(c5c6ccccc6n2c5c31)C(=O)NC4` [KT5720], for which, in the test with T84 cells [1], the “Effect of agent on inhibition … by ST” value is “did not alter”. Further, the pKi in [5] was 7.25.

For `COC(=O)[C@@]1(OC)C[C@H]2O[C@]1(C)n1c3ccccc3c3c4c(c5c6ccccc6n2c5c31)C(=O)N(C)C4` [KT5823], the “Effect of agent on inhibition … by ST” value with T84 cells [1] is reported as “did not alter”. For the same molecule, the pKi on PKG-I and -II is 6.63.

On to `Nc1nc2c(nc(Sc3ccc(Cl)cc3)n2C2OC3COP(O)(=S)OC3C2O)c(=O)[nH]1` (centres unmarked) [RP8pCPT-cGMP], for which the “Effect of agent on inhibition … by ST” value in the test on T84 cells [1] is “did not alter”. For the same molecule, at PKG-I and -II, the pKi was 6.30.

Regarding `Nc1ncnc2c1ncn2[C@@H]1O[C@@H]2CO[P@@](O)(=S)O[C@H]2[C@H]1O` [RP-cAMPs], in the test on T84 cells [1], the “Effect of agent on inhibition … by ST” value is reported as “did not alter”. In test [5], the pKi was 5.00.

Take `Nc1nc2c(ncn2[C@@H]2O[C@@H]3COP(=O)(O)O[C@H]3[C@H]2O)c(=O)[nH]1` [cyclic GMP]: the “Release of matrix metalloproteinase 9” value in [6] is on record as “precisely mimicked”. In test [7], the “Organization of actin cytoskeleton” value was “prevented this organization”.

`Cc1[nH]c(=O)c(C#N)cc1-c1ccncc1` [milrinone]: the “Effect of agent on inhibition … by ST” value in the test on T84 cells [1] is recorded as “did not alter”.

`NC(=Nc1ccccc1)NC(=O)c1nc(Cl)c(N)nc1N` [phenamil]: the “Effect of agent on inhibition … by ST” value in the test on T84 cells [1] is “did not affect; also recorded: did not reverse”.

“charybdotoxin (QFTNVSCTTSKECWSVCQRLHNTSRGKCMNKKCRCYS)”: the results for the “Effect of agent on inhibition … by ST” value with T84 cells [1] and with T84 cells [1] (listed as CTX) were “absence of charybdotoxin effect” and “did not reverse”, respectively.

With “uroguanylin: homologous ST receptor binding peptide produced locally in the intestine (NDDCELCVNVACTGCL; ends and bridges not checked; cysteine pairing not given here; UniProt Q16661 97-112, looked up)”, the “Inhibition of proliferation of cancer cells” value in test [8] and in [9] was “inhibit the proliferation” throughout.
